The test addresses T1, human factor Xa (Homo sapiens, UniProt P00742).
T1 construct: purchased Enzyme Research Laboratories
The experiment in a line: Chromogenic peptide substrate (S-2222) assay, inhibition of coagulation factor Xa. The class given is biochemical. The conditions noted are these: apparent dissociation constant by Cheng-Prusoff from IC50; human factor Xa 3 nM, substrate S-2222, HNPT buffer pH 7.8, room temperature. As to the method:
Factor Xa activity was measured spectrophotometrically in microtiter plates in a final volume of 150 μl using the following conditions: Inhibition of human factor Xa (Enzyme Research Laboratories) was tested at an enzyme concentration of 3 nM using the chromogenic substrate S-2222 (Chromogenix AB, Mölndal, Sweden) at […]. The reaction kinetics of the enzyme and the substrate were linear with both time and the enzyme concentration. The inhibitors were dissolved in DMSO and tested at various concentrations up to 100 μM. The inhibitors were diluted using HNPT buffer consisting of HEPES 100 mM, NaCl 140 mM, PEG 6000 0.1% and Tween 80 0.02%, pH 7.8. The cleavage of S-2222 by human factor Xa was followed at 405 nm for 5 minutes at room temperature. The velocity of the reaction was determined by the autoreader from the slope of the linear regression fit to 7 time points (1 minute). The initial velocity for each inhibitor concentration was determined by the slope of at least 4 time points in the linear phase by a linear regression fit […]. Apparent dissociation constants Ki were calculated according to Cheng and Prusoff [Cheng, Y. C.; Prusoff, W. H. Relationship between the inhibition constant (Ki) and the concentration of the inhibitor that causes 50 percent inhibition (IC50) of an enzyme reaction. Biochem. Pharmacol. 1973, 22, 3099-3108.] based on the IC50 and the respective Km, determined previously (Ki=IC50/(1+S/Km)). The Km for the substrate used was determined under the conditions of the test with at least 5 substrate concentrations ranging from 0.5 to 15 times Km. [Lottenberg R, Hall J A, Blinder M, Binder E P, Jackson C M., The action of thrombin on peptide p-nitroanilide substrates. Substrate selectivity and examination of hydrolysis under different reaction conditions. Biochim Biophys Acta. 1983 Feb. 15; 742(3):539-57]. According to Eadie [Eadie G. S. The inhibition of cholinesterase by physostigmine and prostigmine. J. Biol. Chem. 1942, 146, 85-93.], the Km for S-2222 amounted to 613 μM.
T1 sequence (P00742 235-488 limits assumed): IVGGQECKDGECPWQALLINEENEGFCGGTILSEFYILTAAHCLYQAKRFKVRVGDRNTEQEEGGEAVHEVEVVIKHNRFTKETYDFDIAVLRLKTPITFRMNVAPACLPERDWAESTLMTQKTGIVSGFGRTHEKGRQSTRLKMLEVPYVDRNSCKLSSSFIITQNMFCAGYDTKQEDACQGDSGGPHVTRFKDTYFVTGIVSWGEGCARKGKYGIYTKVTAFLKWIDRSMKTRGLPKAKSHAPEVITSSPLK
T1 sequence (P00742 41-179 partner limits assumed): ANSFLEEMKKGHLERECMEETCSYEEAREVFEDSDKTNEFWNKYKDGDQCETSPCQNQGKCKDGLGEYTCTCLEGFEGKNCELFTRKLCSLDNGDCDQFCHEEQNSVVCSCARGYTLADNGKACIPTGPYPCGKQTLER
`O=C(N[C@H]1CC(C(=O)Nc2ccc(-n3ccccc3=O)cc2F)N(CCC(F)(F)F)C1)c1ccc(Cl)s1` (mixture of isomers) [Example 14, (S)-4-[(5-Chloro-thiophene-2-carbonyl)-amino]-1-(3,3,3-trifluoro-propyl)-pyrrolidine-2-carboxylic acid[2-fluoro-4-(2-oxo-2H-pyridin-1-yl)-phenyl]-amide]: the Ki was determined as 0.042 µM.

Turning to `O=C(N[C@@H]1CN[C@H](C(=O)Nc2ccc(-n3ccccc3=O)cc2F)C1)c1ccc(Cl)s1` [Example 2, (2S,4S)-4-[(5-Chloro-thiophene-2-carbonyl)-amino]-pyrrolidine-2-carboxylic acid[2-fluoro-4-(2-oxo-2H-pyridin-1-yl)-phenyl]-amide trifluoro-acetate], the Ki was 0.023 µM.

`N#CCN1C[C@@H](NC(=O)c2ccc(Cl)s2)C[C@H]1C(=O)Nc1ccc(-n2ccccc2=O)cc1F` [Example 6, (2S,4S)-4-[(5-Chloro-thiophene-2-carbonyl)-amino]-1-cyanomethyl-pyrrolidine-2-carboxylic acid[2-fluoro-4-(2-oxo-2H-pyridin-1-yl)-phenyl]-amide]: the Ki was found to be 0.046 µM.

Take `CC(C)(C)OC(=O)N1C[C@@H](NC(=O)c2ccc(Cl)s2)C[C@H]1C(=O)Nc1ccc(-n2ccncc2=O)cc1F` [Example 21, (2S,4S)-4-[(5-Chloro-thiophene-2-carbonyl)-amino]-2-[2-fluoro-4-(2-oxo-2H-pyrazin-1-yl)-phenylcarbamoyl]-pyrrolidine-1-carboxylic acid tert-butyl ester]: the Ki was found to be 0.065 µM.

The values above are taken from US7601752B2, “Pyrrolidine derivatives” (Hoffmann-La Roche Inc., priority 2005, dated 2009).
